Data: patent publication US20170143701A1, “CARBOHYDRATE METABOLISM-AMELIORATING AGENT” (SUNTORY HOLDINGS LIMITED, priority 2014, published 2017)

Test system: NCI-H716 cells
Assay: In vitro GLP-1 secretion-accelerating action: amount of active GLP-1 secreted (ELISA)
Assay type: cell-based
Details: 1 hour; for Significant difference (p < 0.05) vs control group, amount of active GLP-1 secreted: 10 mM, Student's t-test; for Amount of active GLP-1 secreted (relative value to control group as 100), average value: cyclic dipeptide 10 mM with 10 μM Sitagliptin phosphate, group with no cyclic dipeptide = 100
Method: Among the cyclic dipeptides, 92 highly water-soluble cyclic dipeptides were used in the following experiment. In each well of a Poly-L-Lysine 96-well plate, NCI-H716 cells suspended in 100 μL of a DMEM (with 10% FBS, 2 mM glutamine, and 1% antibiotics added in advance) were seeded at 0.5×10^5 cells/well, and cultured in a CO2 incubator (manufactured by ESPEC CORP.) for 48 hours. After washing with PBS(+), 100 μL of a PBS(+) solution with each cyclic dipeptide at a final concentration of 10 mM and 10 μM of Sitagliptin phosphate added therein was added to the cells. After 1 hour, the resultant solution was recovered, and the amount of active GLP-1 in the solution was measured by using the ELISA kit. In the analysis, the amount of active GLP-1 for a group with no cyclic dipeptide added was defined as 100, and relative values thereto were used.

Question: `NCCCC[C@@H]1NC(=O)[C@H](Cc2c[nH]c3ccccc23)NC1=O` [compound 59, cyclo-tryptophanyl-lysine] was tested. Which “Significant difference (p < 0.05) vs control group, amount of active GLP-1 secreted” value (Table 2, Experiment 2) did it give?
Answer: Yes

Question: And the “Amount of active GLP-1 secreted (relative value to control group as 100), average value” (Table 2, Experiment 2)?
Answer: 239

Question: `NC(=O)CCC1NC(=O)C(Cc2ccccc2)NC1=O` (stereo not drawn) [compound 65, cyclo-glutaminyl-phenylalanine] was tested. Which “Significant difference (p < 0.05) vs control group, amount of active GLP-1 secreted” value (Table 2, Experiment 2) did it give?
Answer: Yes

Question: And the “Amount of active GLP-1 secreted (relative value to control group as 100), average value” (Table 2, Experiment 2)?
Answer: 227

Question: With `CC(C)CC1NC(=O)C(CCCCN)NC1=O` (stereo not drawn) [compound 68, Cyclo(Leu-Lys)] as the compound, how does the “Significant difference (p < 0.05) vs control group, amount of active GLP-1 secreted” value (Table 2, Experiment 2) read?
Answer: No

Question: And the “Amount of active GLP-1 secreted (relative value to control group as 100), average value” (Table 2, Experiment 2)?
Answer: 208

Question: `C[C@@H]1NC(=O)[C@H](CCCCN)NC1=O` [compound 69, Cyclo(Ala-Lys)] was tested. Which “Significant difference (p < 0.05) vs control group, amount of active GLP-1 secreted” value (Table 2, Experiment 2) did it give?
Answer: No

Question: What about the “Amount of active GLP-1 secreted (relative value to control group as 100), average value” (Table 2, Experiment 2) of the same compound?
Answer: 161

Question: How did the “Significant difference (p < 0.05) vs control group, amount of active GLP-1 secreted” value (Table 2, Experiment 2) turn out when `O=C1NCC(=O)N2CC(O)CC12` (stereo not drawn) [compound 73, Cyclo(Hyp-Gly)] was run?
Answer: No

Question: What about the “Amount of active GLP-1 secreted (relative value to control group as 100), average value” (Table 2, Experiment 2) of the same compound?
Answer: 121

Question: With `O=C1C2CC(O)CN2C(=O)C2CCCN12` (stereo not drawn) [compound 74, Cyclo(Hyp-Pro)] as the compound, how does the “Significant difference (p < 0.05) vs control group, amount of active GLP-1 secreted” value (Table 2, Experiment 2) read?
Answer: No

Question: What about the “Amount of active GLP-1 secreted (relative value to control group as 100), average value” (Table 2, Experiment 2) of the same compound?
Answer: 115

Question: Which results are given for `O=C1NC(Cc2c[nH]c3ccccc23)C(=O)NC1CO` (stereo not drawn) [compound 78, Cyclo(Trp-Ser)]?
Answer: Significant difference (p < 0.05) vs control group, amount of active GLP-1 secreted (Table 2, Experiment 2): No; Amount of active GLP-1 secreted (relative value to control group as 100), average value (Table 2, Experiment 2): 119

Question: For `NCCCCC1NC(=O)CNC1=O` (stereo not drawn) [compound 96, cyclo-lysyl-glycine], which “Significant difference (p < 0.05) vs control group, amount of active GLP-1 secreted” value (Table 3, Experiment 3) is on record?
Answer: Yes

Question: What about the “Amount of active GLP-1 secreted (relative value to control group as 100), average value” (Table 3, Experiment 3) of the same compound?
Answer: 133

Question: What does the source list for `NCCCC[C@@H]1NC(=O)[C@H](CCC(=O)O)NC1=O` [compound 97, Cyclo(Glu-Lys)]?
Answer: Significant difference (p < 0.05) vs control group, amount of active GLP-1 secreted (Table 3, Experiment 3): No; Amount of active GLP-1 secreted (relative value to control group as 100), average value (Table 3, Experiment 3): 66

Question: What does the source list for `NCCCC[C@@H]1NC(=O)[C@H](CO)NC1=O` [compound 98, cyclo-seryl-lysine]?
Answer: Significant difference (p < 0.05) vs control group, amount of active GLP-1 secreted (Table 3, Experiment 3): Yes; Amount of active GLP-1 secreted (relative value to control group as 100), average value (Table 3, Experiment 3): 71

Question: Which “Significant difference (p < 0.05) vs control group, amount of active GLP-1 secreted” value (Table 3, Experiment 3) does the source give for `CC(C)[C@@H]1NC(=O)[C@H](CCCCN)NC1=O` [compound 99, cyclo-valyl-lysine] here?
Answer: Yes

Question: And the “Amount of active GLP-1 secreted (relative value to control group as 100), average value” (Table 3, Experiment 3)?
Answer: 532

Question: What does the source list for `NCCCCC1NC(=O)C(CC(=O)O)NC1=O` (stereo not drawn) [compound 100, Cyclo(Asp-Lys)]?
Answer: Significant difference (p < 0.05) vs control group, amount of active GLP-1 secreted (Table 3, Experiment 3): No; Amount of active GLP-1 secreted (relative value to control group as 100), average value (Table 3, Experiment 3): 116

Question: `NCCCC[C@@H]1NC(=O)[C@H](CC(N)=O)NC1=O` [compound 101, cyclo-asparaginyl-lysine] was tested. Which “Significant difference (p < 0.05) vs control group, amount of active GLP-1 secreted” value (Table 3, Experiment 3) did it give?
Answer: Yes

Question: And the “Amount of active GLP-1 secreted (relative value to control group as 100), average value” (Table 3, Experiment 3)?
Answer: 250

Question: What does the source list for `NCCCC[C@@H]1NC(=O)[C@H](CCC(N)=O)NC1=O` [compound 102, Cyclo(Gln-Lys)]?
Answer: Significant difference (p < 0.05) vs control group, amount of active GLP-1 secreted (Table 3, Experiment 3): No; Amount of active GLP-1 secreted (relative value to control group as 100), average value (Table 3, Experiment 3): 112

Question: With `O=C1NC(Cc2cnc[nH]2)C(=O)NC1Cc1cnc[nH]1` (stereo not drawn) [compound 107, cyclo-histidyl-histidine] as the compound, how does the “Significant difference (p < 0.05) vs control group, amount of active GLP-1 secreted” value (Table 3, Experiment 3) read?
Answer: Yes

Question: And the “Amount of active GLP-1 secreted (relative value to control group as 100), average value” (Table 3, Experiment 3)?
Answer: 182

Question: Which results are given for `CC(O)C1NC(=O)C(Cc2cnc[nH]2)NC1=O` (stereo not drawn) [compound 109, cyclo-threonyl-histidine]?
Answer: Significant difference (p < 0.05) vs control group, amount of active GLP-1 secreted (Table 3, Experiment 3): Yes; Amount of active GLP-1 secreted (relative value to control group as 100), average value (Table 3, Experiment 3): 290

Question: What does the source list for `O=C(O)CC1NC(=O)C(Cc2cnc[nH]2)NC1=O` (stereo not drawn) [compound 110, cyclo-aspartyl-histidine]?
Answer: Significant difference (p < 0.05) vs control group, amount of active GLP-1 secreted (Table 3, Experiment 3): Yes; Amount of active GLP-1 secreted (relative value to control group as 100), average value (Table 3, Experiment 3): 340

Question: `NC(=O)C[C@@H]1NC(=O)[C@H](Cc2cnc[nH]2)NC1=O` [compound 111, cyclo-asparaginyl-histidine] was tested. Which “Significant difference (p < 0.05) vs control group, amount of active GLP-1 secreted” value (Table 3, Experiment 3) did it give?
Answer: Yes

Question: What about the “Amount of active GLP-1 secreted (relative value to control group as 100), average value” (Table 3, Experiment 3) of the same compound?
Answer: 341

Question: For `NC(N)=NCCC[C@@H]1NC(=O)[C@H](Cc2cnc[nH]2)NC1=O` [compound 112, Cyclo(Arg-His)], which “Significant difference (p < 0.05) vs control group, amount of active GLP-1 secreted” value (Table 3, Experiment 3) is on record?
Answer: No

Question: What about the “Amount of active GLP-1 secreted (relative value to control group as 100), average value” (Table 3, Experiment 3) of the same compound?
Answer: 106

Question: With `C[C@@H]1NC(=O)[C@H](CCC(=O)O)NC1=O` [compound 113, Cyclo(Glu-Ala)] as the compound, how does the “Significant difference (p < 0.05) vs control group, amount of active GLP-1 secreted” value (Table 3, Experiment 3) read?
Answer: No

Question: And the “Amount of active GLP-1 secreted (relative value to control group as 100), average value” (Table 3, Experiment 3)?
Answer: 157

Question: Which results are given for `CC1NC(=O)C(C(C)O)NC1=O` (stereo not drawn) [compound 114, Cyclo(Thr-Ala)]?
Answer: Significant difference (p < 0.05) vs control group, amount of active GLP-1 secreted (Table 3, Experiment 3): No; Amount of active GLP-1 secreted (relative value to control group as 100), average value (Table 3, Experiment 3): 89
